Counter-ions that a name gives are not always drawn. Like-named read-outs stand apart in the source and are kept apart here.
Tests used:
Cryptosporidium parvum = experiment: qRT-PCR assay of the growth of C. parvum in vitro in HCT-8 host cells (primary and secondary screening, EC50); format: cell-based; conditions: Cryptosporidium parvum, HCT-8; for inhibition at 3.3 µM: secondary screening at 3.3 uM, read-out: % Inhibition (3.3 uM)
in vitro = conditions: for cytotoxicity at 41 h, 10 µM: human
[1] = primary screening at 10 uM, read-out: Inhibition (%)
[2] = primary screening at 10 uM, treated vs control

Row | Compound | inhibition at 10 µM (Cryptosporidium parvum; [1]) [%] | cytotoxicity at 41 h, 10 µM (in vitro) [%] | Hs18S ΔCT (HCT-8 host cells (Hs18S); human, 41 h, 10 μM) | inhibition at 10 µM (Cryptosporidium parvum) [%] | cytotoxicity at 10 µM (in vitro) [%] | Hs18S ΔCT (HCT-8 host cells (Hs18S)) | Hs18S ΔCT (HCT-8 host cells (Hs18S); [2]) | inhibition at 3.3 µM (Cryptosporidium parvum) [%]
1 | COC(=O)/C=C/C(C)=C\C=C\C(C)=C\C=C\C=C(C)\C=C\C=C(C)\C=C\C(=O)O [BIXIN] | 49.3 | 34.2 | 0.60 |  |  |  |  | 
2 | O=c1oc2ccccc2cc1O [3-HYDROXYCOUMARIN] | -39.6 | -15.7 | -0.21 |  |  |  |  | 
3 | C#CCCCCCCCCCCCC(O)CC(O)COC(C)=O (stereo not drawn) [AVOCADYNE ACETATE] | 15.8 | 12.2 | 0.19 |  |  |  |  | 
4 | O=C1C[C@@H]2OCC=C3CN4CC[C@]56c7ccccc7N1[C@H]5[C@H]2[C@H]3C[C@H]46 [STRYCHNINE] |  |  |  | 29 | -23.5 | -0.30 |  | 
5 | COc1cc(O)cc(OC)c1OC [ANTIAROL] | 8.48 | 6.9 | 0.10 |  |  |  |  | 
6 | Nc1ccn([C@@H]2O[C@H](CO)[C@@H](O)[C@H]2O)c(=O)n1 [CYTIDINE] | 36.7 | -44.6 | -0.53 |  |  |  |  | 
7 | NC(=O)c1cccnc1 [NIACINAMIDE] | -9.59 | -3.6 | -0.05 |  |  |  |  | 
8 | COC(=O)/C(=C1/OC(=O)C(c2ccccc2)=C1O)c1ccccc1 [VULPINIC ACID] | -77.9 | 36 | 0.64 |  |  |  |  | 
9 | NC[C@H]1O[C@H](O[C@H]2[C@H](O)[C@@H](O[C@H]3O[C@H](CO)[C@@H](O)[C@H](N)[C@H]3O)[C@H](N)C[C@@H]2N)[C@H](N)[C@@H](O)[C@@H]1O [BEKANAMYCIN SULFATE] | 4.16 | 8.7 | 0.13 |  |  |  |  | 
10 | Cc1cc2c(C(C)C)c(O)c(O)c(C=O)c2c(O)c1-c1c(C)cc2c(C(C)C)c(O)c(O)c(C=O)c2c1O [GOSSYPOL] | 21.4 | 26.6 |  |  |  |  | 0.45 | 
11 | C[C@H](CCC(=O)O)[C@H]1CC[C@H]2[C@@H]3[C@@H](O)C[C@@H]4C[C@H](O)CC[C@]4(C)[C@H]3CC[C@]12C [URSODIOL] | -41.7 | -10.9 | -0.15 |  |  |  |  | 
12 | C[N+]12CC[C@@]34c5ccccc5N5C(=O)C[C@@H]6OCC=C(C1)[C@H](C[C@@H]32)[C@@H]6[C@H]54 (stereo partly drawn) [[…]] | -6.9 |  |  |  | 33.3 |  | 0.58 | 
13 | OCc1ccccc1O[C@@H]1O[C@H](CO)[C@@H](O)[C@H](O)[C@H]1O [SALICIN] | 37.1 | 32.9 | 0.58 |  |  |  |  | 
14 | COC(=O)C(O)c1ccccc1 (stereo not drawn) [MANDELIC ACID, METHYL ESTER] | -2.26 | 19.1 | 0.31 |  |  |  |  | 
15 | Cc1ccc(C(C)C)cc2c(C)ccc1-2 [GUAIAZULENE] | -38.2 | -27 | -0.34 |  |  |  |  | 
16 | COc1ccc(C(=O)O)cc1OC [VERATRIC ACID] | -10.7 |  |  |  | -6.7 |  | -0.09 | 
17 | O=C1C=C(O)C(=O)c2ccccc21 [LAWSONE] | -46.1 | -12 | -0.16 |  |  |  |  | 
18 | O=C1c2ccccc2C(=O)c2c(O)c(O)cc(O)c21 [PURPURIN] | -37.2 | -14.3 |  |  |  |  | -0.19 | 
19 | CC(C)/C(O)=C1/C(=O)O[C@@H](c2ccoc2)[C@]2(C)C(O)[C@@H](O)[C@@]34OC5(C)OC67CC(C)(C(O)[C@]6(O)[C@@H](O)[C@]3(O5)C12)[C@H](CC(=O)O)[C@]74C (stereo partly drawn) [HYDROLYSIS PRODUCT OF BUSSEIN] | 8.3 | -60.9 | -0.69 |  |  |  |  | 
20 | O=C(O)/C=C/c1ccc(O)c(O)c1 [CAFFEIC ACID] | 18.9 | -26.2 | -0.34 |  |  |  |  | 
21 | COc1cc(O)c(C(=O)c2ccccc2)cc1O [CEAROIN] | -22.5 | -21 | -0.27 |  |  |  |  | 
22 | CC1=CC(=O)c2c(O)cccc2C1=O [PLUMBAGIN] | 95.1 | 58.1 | 1.26 |  |  |  |  | 13
23 | Nc1nc2c(c(=O)[nH]1)N=C(CNc1ccc(C(=O)N[C@@H](CCC(=O)O)C(=O)O)cc1)CN2 [DIHYDROFOLIC ACID] | -11.9 | -28.7 | -0.36 |  |  |  |  | 
24 | N[C@@H](Cc1ccc(O)c(O)c1)C(=O)O [LEVODOPA] | -9.67 | -15.4 | -0.21 |  |  |  |  | 
25 | COc1cc2c(cc1OC)[C@@H]1C(=O)c3ccc4oc(C(C)C)cc4c3O[C@@H]1CO2 [ISOROTENONE] | 2.53 |  |  |  | 38.9 |  | 0.71 | 

Row | Compound | inhibition at 10 µM (Cryptosporidium parvum; [1]) [%] | cytotoxicity at 41 h, 10 µM (in vitro) [%] | Hs18S ΔCT (HCT-8 host cells (Hs18S); human, 41 h, 10 μM) | inhibition at 10 µM (Cryptosporidium parvum) [%] | cytotoxicity at 10 µM (in vitro) [%] | Hs18S ΔCT (HCT-8 host cells (Hs18S)) | Hs18S ΔCT (HCT-8 host cells (Hs18S); [2]) | inhibition at 3.3 µM (Cryptosporidium parvum) [%]
26 | COC(=O)c1cc(O)c(=O)c2c(O)c(O)ccc2c1 [METHYL 7-DESHYDROXYPYROGALLIN-4-CARBOXYLATE] | -4.08 | 10.5 | 0.16 |  |  |  |  | 
27 | COC(=O)c1c(OC)cc2c(c1C)Oc1c(Cl)c(O)c(Cl)c(C)c1C(=O)O2 [GANGALEOIDIN] | -21.6 | -3.3 | -0.05 |  |  |  |  | 
28 | NCC(O)c1ccc(O)cc1 (stereo not drawn) [OCTOPAMINE HYDROCHLORIDE] | 85.1 | -15.8 | -0.21 |  |  |  |  | -12
29 | COC1=C[C@@H](C)[C@@H]2C[C@H]3OC(=O)C[C@H]4C(C)=C(OC)C(=O)[C@H]([C@@]2(C)C1=O)[C@@]34C [QUASSIN] | 29.4 | 5.1 | 0.08 |  |  |  |  | 
30 | C=CCc1ccc(OC)cc1 [ESTRAGOLE] | 99.6 |  |  |  | -16.6 |  | -0.22 | 15
31 | O=C1C=C2C(=CCOC2O)O1 (stereo not drawn) [PATULIN] | 91.4 |  |  |  | 43 |  | 0.81 | 10
32 | COC1=CC(=O)C(O)=C/C1=C\C=C\c1ccccc1 [OBTUSAQUINONE] | 87.1 | 44.3 | 0.84 |  |  |  |  | -92
33 | COc1ccc2c(c1)OCc1c-2oc2cc(OC)ccc12 [DEHYDROVARIABILIN] | 22 | -33.6 | -0.42 |  |  |  |  | 
34 | C[C@@H]1CC[C@@]2(OC1)O[C@H]1C[C@H]3[C@@H]4CC=C5C[C@@H](O)CC[C@]5(C)[C@H]4CC[C@]3(C)[C@H]1[C@@H]2C [DIOSGENIN] | 14.7 |  |  |  | 19.7 |  | 0.32 | 
35 | O=C(O)c1cc(=O)[nH]c(=O)[nH]1 [OROTIC ACID] | 8.85 | -31.1 | -0.39 |  |  |  |  | 
36 | O=C(O)/C=C/C=C/c1ccc2c(c1)OCO2 [PIPERIC ACID] | 0.79 |  |  |  | -1.7 |  | -0.02 | 
37 | O=C(O)/C=C/c1ccccc1 [CINNAMIC ACID] | 2.86 |  |  |  | -31 |  | -0.39 | 
38 | COc1ccc([C@@H](C)C(=O)c2ccc(O)cc2O)cc1 [ANGOLENSIN (R)] | -26.9 | -12.5 | -0.17 |  |  |  |  | 
39 | Cc1ccc2c(c1)CC[C@H]1CC(=O)CC[C@]21C [13-METHYL-4,4-BISNOR-8,11,13-PODOCARPATRIEN-3-ONE] | -31.4 | -2 | -0.03 |  |  |  |  | 
40 | C=C1C(N)CC2CC1C2(C)C (stereo not drawn) [3-AMINO-beta-PINENE] | 19.2 | 25.3 | 0.42 |  |  |  |  | 
41 | CCCCC[C@H](CC(=O)NO)C(=O)N[C@H](C(=O)N1CCC[C@H]1CO)C(C)C [ACTINONIN] | 31.3 | -4.6 | -0.06 |  |  |  |  | 
42 | CC[C@]1(O)C[C@@H]2CN(CCc3c([nH]c4ccccc34)[C@@](C(=O)OC)(c3cc4c(cc3OC)N(C)[C@H]3[C@@](O)(C(=O)OC)[C@H](OC(C)=O)[C@]5(CC)C=CCN6CC[C@]43[C@@H]65)C2)C1 [VINBLASTINE SULFATE] | 71.7 | 43 | 0.81 |  |  |  |  | 67
43 | NCCc1c[nH]c2ccc(O)cc12 [SEROTONIN HYDROCHLORIDE] | 10.2 |  |  |  | -31.7 |  | -0.40 | 
44 | COC(=O)CC1C(C)(C)C(OC(C)=O)[C@@H]2[C@@H](OC(C)=O)[C@]34O[C@@]2(O)[C@]1(C)C3CC[C@]1(C)C4=CC(=O)O[C@H]1c1ccoc1 (stereo partly drawn) [XYLOCARPUS A] | -11.9 | -39.2 | -0.48 |  |  |  |  | 
45 | O=C(/C=C/c1ccccc1)c1ccc(O)cc1 [4'-HYDROXYCHALCONE] | 9.45 | 20.5 | 0.33 |  |  |  |  | 
46 | COc1ccc(-c2cc(=O)c3ccccc3o2)cc1 [4'-METHOXYFLAVONE] | 44.4 | -6.3 |  |  |  |  | -0.09 | 
47 | C[C@H]1[C@H](C)CC[C@]2(C(=O)O)CC[C@]3(C)C(=CC[C@@H]4[C@@]5(C)C[C@@H](O)[C@H](O)[C@@](C)(CO)[C@@H]5[C@H](O)C[C@]43C)[C@H]12 [MADECASSIC ACID] | -20.3 |  |  |  | -11.7 |  | -0.16 | 
48 | O=c1c(-c2ccc(O)cc2)coc2cc(O)cc(O)c12 [GENISTEIN] | 6.85 |  |  |  | 12.7 |  | 0.20 | 
49 | O=c1c(O)c(-c2ccc(O)c(O)c2)oc2c(O)c(O)cc(O)c12 [GOSSYPETIN] | -17.5 |  |  |  | -2.6 |  | -0.04 | 
50 | CC(C)=CCC/C(C)=C/CC/C(C)=C/CC/C(C)=C/CC1=C(C)C(=O)c2ccccc2C1=O [MENAQUINONE-4] | -13.8 | 4.1 | 0.06 |  |  |  |  | 

— paper PMC6736568, “Discovery of Novel Anti-cryptosporidial Activities From Natural Products by in vitro High-Throughput Phenotypic Screening” (Frontiers in Microbiology, 2019)
